This is an account of results in patent US9745328B2, “Flap modulators” (JANSSEN PHARMACEUTICA NV, priority 2013, dated 2017).

This experiment addresses human FLAP (Homo sapiens (Human), UniProt P20292). Kind of experiment: FLAP binding assay (HTRF format). Conditions: Table 6 (additional runs), human FLAP wild type. How it is done:
The ability of the compounds of the present invention to treat a FLAP-mediated disease and/or disorder, or associated symptoms or complications thereof, was determined using the following procedures. Binding assay data represent the average value obtained from two different assay plates, with samples run in duplicate on each plate. Human whole blood assay data represent a single replicate on an assay plate using whole blood from at least one healthy donor.
Data are expressed as a HTRF ratio.

Chain of human FLAP (P20292 whole entry): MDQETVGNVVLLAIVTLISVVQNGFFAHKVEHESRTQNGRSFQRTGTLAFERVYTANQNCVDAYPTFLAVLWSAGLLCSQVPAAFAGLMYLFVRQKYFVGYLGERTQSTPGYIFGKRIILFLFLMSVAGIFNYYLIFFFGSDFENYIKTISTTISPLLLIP

By Ki is commonly meant the equilibrium dissociation constant of an inhibitor or competing ligand from its target. The low end stands for tighter binding, the high end for weaker binding. Take `Nc1cnc(-c2ccc(-c3ccccc3S(=O)(=O)Nc3ccccc3)cc2F)cn1` [Example 26, 4′-(5-Aminopyrazin-2-yl)-3′-fluoro-N-phenylbiphenyl-2-sulfonamide]: the Ki amounted to 0.9 nM. `CCN1CCCC[C@@H](NS(=O)(=O)c2ccccc2-c2ccc(-c3cnc(N)cn3)c(F)c2)C1=O` [Example 27] displayed an inhibitory constant (Ki) of 26.3 nM. In turn, `CN1CCCC[C@@H](NS(=O)(=O)c2ccccc2-c2ccc(-c3cnc(N)cn3)c(F)c2)C1=O` [Example 29, (S)-4′-(5-Aminopyrazin-2-yl)-3′-fluoro-N-[(3S)-1-methyl-2-oxoazepan-3-yl]biphenyl-2-sulfonamide] displayed a Ki of 63.2 nM. `Nc1cnc(-c2ccc(-c3ccccc3NS(=O)(=O)C3CC3)cc2F)cn1` [Example 38, N-(4′-(5-aminopyrazin-2-yl)-3′-fluoro-[1,1′-biphenyl]-2-yl)cyclopropanesulfonamide]: the Ki stood at 28.8 nM. In turn, `Nc1cnc(-c2ccc(-c3ccccc3NS(=O)(=O)C(F)(F)F)cc2F)cn1` [Example 41, N-[4′-(5-Aminopyrazin-2-yl)-3′-fluorobiphenyl-2-yl]-1,1,1-trifluoromethanesulfonamide] came in with an inhibitory constant (Ki) of 10.6 nM. The result for `CN(C)S(=O)(=O)c1ccccc1-c1ccc(-c2cnc(N)cn2)c(F)c1` [Example 42, 4′-(5-Aminopyrazin-2-yl)-3′-fluoro-N,N-dimethylbiphenyl-2-sulfonamide] reads 10.2 nM; that for `Nc1cnc(-c2ccc(-c3ccccc3S(=O)(=O)N3CCOCC3)cc2F)cn1` [Example 44, 5-[3-Fluoro-2′-(morpholin-4-ylsulfonyl)biphenyl-4-yl]pyrazin-2-amine], 6.5 nM; that for `CCN(CC)S(=O)(=O)c1ccccc1-c1ccc(-c2cnc(N)cn2)c(F)c1` [Example 47, 4′-(5-Aminopyrazin-2-yl)-N,N-diethyl-3′-fluorobiphenyl-2-sulfonamide], 1.6 nM.

As for `Nc1cnc(-c2ccc(-c3ccccc3S(=O)(=O)N3CCCC3)cc2F)cn1` [Example 48, 5-[3-Fluoro-2′-(pyrrolidin-1-ylsulfonyl)biphenyl-4-yl]pyrazin-2-amine], the Ki is 7 nM.

The compound `Nc1cnc(-c2ccc(-c3ccccc3S(=O)(=O)N3CCCC(F)(F)C3)cc2F)cn1` [Example 50, 5-{2′-[(3,3-Difluoropiperidin-1-yl)sulfonyl)-3-fluorobiphenyl-4-yl}pyrazin-2-amine] registered a Ki of 1.3 nM. The result for `Nc1cnc(-c2ccc(-c3ccccc3S(=O)(=O)N3CCC(F)(F)C3)cc2F)cn1` [Example 51, 5-{2′-[(3,3-Difluoropyrrolidin-1-yl)sulfonyl]-3-fluorobiphenyl-4-yl}pyrazin-2-amine] reads 3.8 nM. As for `Nc1cnc(-c2ccc(-c3ccccc3S(=O)(=O)N3CC(F)(F)C3)cc2F)cn1` [Example 52, 5-{2′-[(3,3-Difluoroazetidin-1-yl)sulfonyl]-3-fluorobiphenyl-4-yl}pyrazin-2-amine], the Ki turned out to be 3.7 nM. The same measure for `Nc1cnc(-c2ccc(-c3ccccc3S(=O)(=O)N3CCCCCC3)cc2F)cn1` [Example 53, 5-[2′-(Azepan-1-ylsulfonyl)-3-fluorobiphenyl-4-yl]pyrazin-2-amine]: 3.3 nM. In turn, `Nc1cnc(-c2ccc(-c3ccccc3S(=O)(=O)N3CCC(O)(C(F)(F)F)CC3)cc2F)cn1` [Example 55, 1-{[4′-(5-Aminopyrazin-2-yl)-3′-fluorobiphenyl-2-yl]sulfonyl}-4-(trifluoromethyl)piperidin-4-ol] showed an inhibition constant Ki of 1.1 nM. In turn, `CS(=O)(=O)N1CCN(S(=O)(=O)c2ccccc2-c2ccc(-c3cnc(N)cn3)c(F)c2)CC1` [Example 56, 5-(3-Fluoro-2′-{[4-(methylsulfonyl)piperazin-1-yl]sulfonyl}biphenyl-4-yl)pyrazin-2-amine] came in with an inhibition constant Ki of 8.8 nM. The compound `CC(=O)N1CCN(S(=O)(=O)c2ccccc2-c2ccc(-c3cnc(N)cn3)c(F)c2)CC1` [Example 57, 5-{2′-[(4-Acetylpiperazin-1-yl)sulfonyl]-3-fluorobiphenyl-4-yl}pyrazin-2-amine] yielded an inhibition constant (Ki) of 13.4 nM.

For `Nc1cnc(-c2ccc(-c3ccccc3S(=O)(=O)N3CCN(C(=O)C4CC4)CC3)cc2F)cn1` [Example 58, 5-(2′-{[4-(Cyclopropylcarbonyl)piperazin-1-yl]sulfonyl}-3-fluoroblphenyl-4-yl)pyrazin-2-amine], the inhibitory constant (Ki) stood at 4.6 nM. `Nc1cnc(-c2ccc(-c3ccccc3S(=O)(=O)N3CCC(N)CC3)cc2F)cn1` [Example 65, 5-{2′-[(4-Aminopiperidin-1-yl)sulfonyl]-3-fluorobiphenyl-4-yl}pyrazin-2-amine]: the Ki was 63.3 nM. `Nc1cnc(-c2ccc(-c3ccccc3S(=O)(=O)N3CCNC(=O)C3)cc2F)cn1` [Example 66, 4-{1,4′-(5-Aminopyrazin-2-yl)-3′-fluorobiphenyl-2-ylisulfonyl}piperazin-2-one] returned a Ki of 26.6 nM. Regarding `Nc1cnc(-c2ccc(-c3ccccc3S(=O)(=O)N3CCC(CCO)CC3)cc2F)cn1` [Example 69, 2-(1-{[4′-(5-Aminopyrazin-2-yl)-3′-fluorobiphenyl-2-yl]sulfonyl}piperidin-4-yl)ethanol], affinity was put at a Ki of 0.9 nM.

Turning to `CNC1CCN(S(=O)(=O)c2ccccc2-c2ccc(-c3cnc(N)cn3)c(F)c2)CC1` [Example 72, 5-{3-Fluoro-2′-{[4-(methylamino)piperidin-1-yl]sulfonyl}biphenyl-4-yl)pyrazin.-2-amine], the inhibitory constant (Ki) stood at 120 nM. The compound `CC(=O)NC1CCN(S(=O)(=O)c2ccccc2-c2ccc(-c3cnc(N)cn3)c(F)c2)CC1` [Example 75, N-(1-{[4′-(5-Aminopyrazin-2′yl)-3′-fluorobiphenyl-2-yl]sulfonyl}piperidin-4-yl)acetamide] registered a Ki of 10.7 nM. `Nc1cnc(-c2ccc(-c3ccccc3S(=O)(=O)N[C@@H](CO)[C@@H](O)c3ccccc3)cc2F)cn1` [Example 78, 4′-(5-Aminopyrazin-2-yl)-3′-fluoro-N-[(1S,2S)-2-hydroxy-1-(hydroxymethyl)-2-phenylethyl]biphenyl-2-sulfonamide] returned a Ki of 0.7 nM.

Turning to `CC(C)C[C@@H](CO)NS(=O)(=O)c1ccccc1-c1ccc(-c2cnc(N)cn2)c(F)c1` [Example 79, 4′-(5-Aminopyrazin-2-yl)-3′-fluoro-N-[(1S)-1-(hydroxymethyl)-3-methylbutyl]biphenyl-2-sulfonamide], the Ki stood at 5.3 nM. `Nc1cnc(-c2ccc(-c3ccccc3S(=O)(=O)NCCCO)cc2F)cn1` [Example 80, 4′-(5-Aminopyrazin-2-yl)-3′-fluoro-N-(3-hydroxypropyl)biphenyl-2-sulfonamide]: the affinity corresponds to a Ki of 3.9 nM. As to `Nc1cnc(-c2ccc(-c3ccccc3S(=O)(=O)N[C@H](CO)c3ccccc3)cc2F)cn1` [Example 81, 4′-(5-Aminopyrazin-2-yl)-3′-fluoro-N-[(1S)-2-hydroxy-1-phenylethyl]biphenyl-2-sulfonamide], the affinity corresponds to a Ki of 6.4 nM. Turning to `Nc1cnc(-c2ccc(-c3ccccc3S(=O)(=O)N[C@@H](CO)c3ccccc3)cc2F)cn1` [Example 82, 4′-(5-Aminopyrazin-2-yl)-3′-fluoro-N-[(1R)-2-hydroxy-1-phenylethyl]biphenyl-2-sulfonamide], the affinity corresponds to a Ki of 0.7 nM. `Nc1cnc(-c2ccc(-c3ccccc3S(=O)(=O)N[C@@H]3CCCC[C@H]3O)cc2F)cn1` [Example 85, 4′-(5-Aminopyrazin-2-yl)-3′-fluoro-N-[(1R,2R)-2-hydroxycyclohexyl]biphenyl-2-sulfonamide] returned a Ki of 1.9 nM. `CC[C@H](CO)NS(=O)(=O)c1ccccc1-c1ccc(-c2cnc(N)cn2)c(F)c1` [Example 86, 4′-(5-Aminopyrazin-2-yl)-3′-fluoro-N-[(1R)-1-(hydroxymethyl)propyl]biphenyl-2-sulfonamide]: the affinity corresponds to a Ki of 2.6 nM. `Nc1cnc(-c2ccc(-c3ccccc3S(=O)(=O)N[C@@H]3CCCC[C@@H]3O)cc2F)cn1` [Example 87, 4′-(5-Aminopyrazin-2-yl)-3′-fluoro-N-[(1R,2S)-2-hydroxycyclohexyl]biphenyl-2-sulfonamide] registered a Ki of 3.2 nM. The result for `Nc1cnc(-c2ccc(-c3ccccc3S(=O)(=O)NCCO)cc2F)cn1` [Example 88, 4′-(5-Aminopyrazin-2-yl)-3′-fluoro-N-(2-hydroxyethyl)biphenyl-2-sulfonamide] reads 6.2 nM. Take `Nc1cnc(-c2ccc(-c3ccccc3S(=O)(=O)NC3CC3)cc2F)cn1` [Example 89, 4′-(5-Aminopyrazin-2-yl)-N-cyclopropyl-3′-fluoroblphenyl-2-sulfonamide]: the affinity corresponds to a Ki of 4.9 nM. As for `Nc1cnc(-c2ccc(-c3ccccc3S(=O)(=O)NCC3CC3)cc2F)cn1` [Example 90, 4′-(5-Aminopyrazin-2-yl)-N-(cyclopropylmethyl)-3′-fluorobiphenyl-2-sulfonamide], the Ki amounted to 0.9 nM. `CS(=O)(=O)NS(=O)(=O)c1ccccc1-c1ccc(-c2cnc(N)cn2)c(F)c1` [Example 96, 4′-(5-Aminopyrazin-2-yl)-3′-fluoro-N-(methylsulfonyl)biphenyl-2-sulfonamide] returned a Ki of 354 nM.

In turn, `C[C@@H](O)CNS(=O)(=O)c1ccccc1-c1ccc(-c2cnc(N)cn2)c(F)c1` [Example 97, (R)-4′-(5-aminopyrazin-2-yl)-3′-fluoro-N-(2-hydroxypropyl)-[1,1′-biphenyl]-2-sulfonamide] showed an inhibitory constant (Ki) of 6.6 nM. Consider `C[C@H](O)CNS(=O)(=O)c1ccccc1-c1ccc(-c2cnc(N)cn2)c(F)c1` [Example 98, (S)-4′-(5-aminopyrazin-2-yl)-3′-fluoro-N-(2-hydroxypropyl)-[1,1′-biphenyl]-2-sulfonamide], for which the Ki turned out to be 6.1 nM. The result for `Nc1cnc(-c2ccc(-c3ccccc3S(=O)(=O)NCC3(O)CCCCC3)cc2F)cn1` [Example 99, 4′-(5-Aminopyrazin-2-yl)-3′-fluoro-N-[(1-hydroxycyclohexyl)methyl]biphenyl-2-sulfonamide] reads 1.6 nM; that for `CC(C)(CO)NS(=O)(=O)c1ccccc1-c1ccc(-c2cnc(N)cn2)c(F)c1` [Example 100, 4′-(5-Aminopyrazin-2-yl)-3′-fluoro-N-(2-hydroxy-1,1-dimethylethyl)biphenyl-2-sulfonamide], 0.8 nM.
